From patent US7476754B2, “Biphenyl derived thiamides as calpain inhibitors” (Consejo Superior de Investigaciones Cientificas, priority 2004, dated 2009)

Target: T1, calpain I (Sus scrofa, UniProt P35750)
T1 construct: The calpain I from porcine erythrocytes; purchased CALBIOCHEM; host or cells: porcine erythrocytes (tissue-purified)
T1 sequence (P35750 1-714): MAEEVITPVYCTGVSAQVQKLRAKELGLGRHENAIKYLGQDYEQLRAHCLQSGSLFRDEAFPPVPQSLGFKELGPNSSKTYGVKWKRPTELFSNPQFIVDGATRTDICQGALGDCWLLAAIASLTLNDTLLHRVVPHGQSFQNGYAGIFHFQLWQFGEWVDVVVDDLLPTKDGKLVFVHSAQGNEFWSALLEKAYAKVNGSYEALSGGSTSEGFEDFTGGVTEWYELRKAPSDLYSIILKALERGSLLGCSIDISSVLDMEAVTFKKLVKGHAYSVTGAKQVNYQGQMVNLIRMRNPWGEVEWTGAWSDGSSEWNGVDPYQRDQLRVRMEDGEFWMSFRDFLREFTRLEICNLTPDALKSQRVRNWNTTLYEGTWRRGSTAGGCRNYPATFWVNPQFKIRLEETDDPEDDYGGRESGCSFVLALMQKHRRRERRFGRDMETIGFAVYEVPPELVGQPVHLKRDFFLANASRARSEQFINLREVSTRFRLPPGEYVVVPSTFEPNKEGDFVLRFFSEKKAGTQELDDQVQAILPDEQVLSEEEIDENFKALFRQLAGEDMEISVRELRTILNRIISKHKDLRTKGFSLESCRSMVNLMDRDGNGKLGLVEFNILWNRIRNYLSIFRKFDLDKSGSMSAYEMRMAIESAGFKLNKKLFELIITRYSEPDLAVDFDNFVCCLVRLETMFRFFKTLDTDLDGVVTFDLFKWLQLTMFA
T1 sequence (P04574 1-266 partner): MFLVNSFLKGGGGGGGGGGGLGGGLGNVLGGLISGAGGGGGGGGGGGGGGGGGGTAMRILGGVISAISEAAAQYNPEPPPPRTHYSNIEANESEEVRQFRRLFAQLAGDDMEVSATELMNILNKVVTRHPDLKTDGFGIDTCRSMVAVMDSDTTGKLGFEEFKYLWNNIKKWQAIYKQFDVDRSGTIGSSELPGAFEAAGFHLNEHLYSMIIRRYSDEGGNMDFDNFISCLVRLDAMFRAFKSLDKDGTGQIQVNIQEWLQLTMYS
Assay: Enzyme activity test: inhibition of calpain (EnzCheck protease assay kit, BODIPY FL casein, fluorescence)
Type: biochemical
Details: calpain I from porcine erythrocytes; BODIPY FL casein substrate; Tris-HCl pH 7.8; triplicate
Text: The calpain inhibition capacity has been quantified in terms of the value of IC50, which is defined as the concentration of inhibitor that reduces the catalytic activity of an enzyme by half. The lower the value of IC50, the more powerful the inhibitor. Inhibition results on calpain I (the most relevant from a physiological point of view) of some compounds of the present invention are shown in table 1 and in FIG. 1. Given that calpain II, also known as milli-calpain, needs a greater amount of calcium for activation, it might not possibly have such a relevant physiological role since such a concentration of calcium would cause cell death before the milli-calpain could become activated. For this reason, the inhibition tests have been performed for calpain I, though they can be extrapolated for calpain II.
The calpain inhibition capacity has been quantified in terms of the value of IC50, which is defined as the concentration of inhibitor that reduces the catalytic activity of an enzyme by half. The lower the value of IC50, the more powerful the inhibitor. Inhibition results on calpain I (the most relevant from a physiological point of view) of some compounds of the present invention are shown in table 1 and in FIG. 1.
In order to carry out the inhibition test on calpains, we used the EnzCheck® Protease Assay Kit E-338 from Molecular Probes. This kit contains casein marked with BODIPY FL®, freeze-dried from phosphate buffer. Also used as a digestion buffer was Tris-HCl at pH 7.8, containing 2 mM of sodium azide. The calpain I from porcine erythrocytes or calpain II from porcine kidney that were used are commercial products from CALBIOCHEM®. The enzyme stock solution contained 20 mM of imidazol-HCl buffer, pH 6.8, 1 mM EDTA, 1 mM EGTA, 5 mM β-mercaptoethanol, 30% in glycerol.
The synthetic inhibitors were dissolved in 250 μL of DMSO. The tests were conducted on 96-well microplates in a final volume of 200 μL. In order to carry out the test, aliquots of stock solution of calpain were added to 150 μL of a 10 μg/μL solution in digestion buffer in order to obtain a final concentration of 50 ng/mL of enzyme. Minimum quantities were added, between 5 and 20 μL of inhibitor solution in DMSO, previously diluted in order to achieve the desired final concentration of inhibitor, and digestion buffer was added until a volume of 190 μL was achieved. The test commenced by adding 10 μL of 0.05 M CaCl2 solution. For each inhibitor, separate measurements excluding inhibitor, calpain and calcium solution were taken as blanks. All measurements were made in triplicate.
The fluorescence measurements were made in a SPECTRAFLUOR TECAN Corp 93382 spectrum fluorimeter, exciting at 485 nm and taking the reading at 530 nm. The measurement was made over 20 cycles until the measurement of all wells was completed. Stirring was orbital type and took place each cycle.

Compound	IC50 [nM]
COC(=O)[C@H](Cc1c[nH]c2ccccc12)NC(=S)c1ccccc1-c1ccccc1C(=S)N[C@@H](Cc1c[nH]c2ccccc12)C(=O)OC [Compound 3, Methyl (S,S)-3-(1H-Indol-3-yl)-2-{[2′-(2-(1H-Indol-3-yl)-1-methoxycarbonyl-ethylthiocarbamoyl)-biphenyl-2-carbothioyl]-amino}-propionate]	0.038
COC(=O)[C@H](Cc1ccccc1)NC(=S)c1ccccc1-c1ccccc1C(=S)N[C@@H](Cc1ccccc1)C(=O)OC [Compound 1, Methyl (S,S)-3-phenyl-2-{[2′-(2-phenyl-1-methoxycarbonyl-ethylthio-carbamoyl)-biphenyl-2-carbothiol]-amino}—propionate]	94000
COC(=O)[C@H](Cc1c[nH]c2ccccc12)NC(=O)c1ccccc1-c1ccccc1C(=S)N[C@@H](Cc1c[nH]c2ccccc12)C(=O)OC [Compound 4, Methyl (S,S)-3-(1H-Indol-3-yl)-2-{[2′-(2-(1H-Indol-3-yl)-1-methoxycarbonyl-ethylthiocarbamoyl)-biphenyl-2-carbonyl]-amino}-propionate]	69
COC(=O)[C@@H](NC(=S)c1ccccc1-c1ccccc1C(=S)N[C@H](C(=O)OC)C(C)C)C(C)C [Compound 5, Methyl (S,S)-2-{[2′-(1-methoxycarbonyl-2-methyl-propylthiocarbamoyl)-biphenyl-2-carbothioyl]-amino}-3-methyl-butyrate]	71
COC(=O)[C@@H](NC(=O)c1ccccc1-c1ccccc1C(=S)N[C@H](C(=O)OC)C(C)C)C(C)C [Compound 6, Methyl (S,S)-2-{[2′-(1-methoxycarbonyl-2-methyl-propylthiocarbamoyl)-biphenyl-2-carbonyl]-amino}-3-methyl-butyrate]	0.052

The next lines start with the values.

IC50 [nM]	Compound
63000	COC(=O)[C@H](Cc1ccccc1)NC(=O)c1ccccc1-c1ccccc1C(=S)N[C@@H](Cc1ccccc1)C(=O)OC [Compound 2, Methyl (S,S)-3-phenyl-2-{[2′-(2-phenyl-1-methoxycarbonyl-ethylthio-carbamoyl)-biphenyl-2-carbonyl]-amino}-propionate]
796	COC(=O)[C@H](Cc1ccc(O)cc1)NC(=S)c1ccccc1-c1ccccc1C(=S)N[C@@H](Cc1ccc(O)cc1)C(=O)OC [Compound 7]
12000	COC(=O)[C@H](Cc1ccc(O)cc1)NC(=O)c1ccccc1-c1ccccc1C(=S)N[C@@H](Cc1ccc(O)cc1)C(=O)OC [Compound 8]
